Results published in US5998624A, “Haloisoquinoline carboxamide” (Emory University, priority 1998, dated 1999).
pKi: −log10 of the molar value. Where “and” joins values, the source holds several entries; their conditions need not be identical. Identical values can stand only once.

target: T1, PK receptors (Rattus norvegicus, UniProt P16257); assay: Inhibition of [^3 H]PK11195 binding to PK receptors in rat kidney homogenate; conditions: [^3 H]PK11195, 60 min, room temperature, Average, N-2
T1 construct: Tissue preparations of rat kidney homogenate; from tissue; host or cells: rat kidney homogenate
Method: The binding affinities of representative compounds of the invention are given in Table I. In this study, the compounds having the generic structure defined, supra, were tested for their ability to inhibit the binding of a known PK receptor antagonist [^3 H]PK11195, to PK receptors in a rat kidney homogenate preparation.
Tissue preparations of rat kidney homogenate were incubated with [^3 H]PK11195 and competitors (i.e. 9a-d & 23a-c, at 12 concentrations ranging from 10^-11 to 10^-6 […]) in an assay buffer. The assay mixture was incubated for 60 min. at room temperature with stirring and the resulting samples were rapidly filtered through Whatman GF/B glass-fiber filters pretreated with 0.2% protamine base and washed with cold buffer, pH 7.4. The filters were counted in a liquid scintillation counter at an efficiency of 65% for tritium saturation binding, Scatchard and competition experiments were analyzed with the iterative nonlinear least squares curve-fitting program. For comparison, for PK11195, X is Cl, Y and Z are H, and R is 2-butyl. Compounds having the lower Ki values were the most As effective inhibitors, and therefore bound the PK-receptor at the lowest concentrations. Compounds of the invention are also useful for radiation therapy, based on their specific affinity for glial tumor cells.

Row | Structure (SMILES) | pKi
1 | CCC(C)N(C)C(=O)c1cc2ccccc2c(-c2ccc(I)cc2)n1 (stereo not shown) [H H I CH3 CHCH2 CH3] | 8.51 and 8.80
2 | CN(CCCF)C(=O)c1cc2ccccc2c(-c2cccc(I)c2)n1 [H I H CH2 CH2 CH2 F, 1-(3-iodophenyl)-N-methyl-N-(3-fluoropropyl)-3-isoquinolinecarboxamide] | 8.89
3 | CN(CCF)C(=O)c1cc2ccccc2c(-c2ccccc2I)n1 [I H H CH2 CH2 F, 1-(2-iodophenyl)-N-methyl-N-(2-fluoroethyl)-3-isoquinolinecarboxamide] | 6.38
4 | CCC(C)N(C)C(=O)c1cc2ccccc2c(-c2cccc(I)c2)n1 (stereo not shown) [H I H CH3 CHCH2 CH3] | 8.55 and 8.82
5 | CN(CCCF)C(=O)c1cc2ccccc2c(-c2ccc(I)cc2)n1 [H H I CH2 CH2 CH2 F, 1-(4-iodophenyl)-N-methyl-N-(3-fluoropropyl)-3-isoquinolinecarboxamide] | 7.20
6 | CN(CCCF)C(=O)c1cc2ccccc2c(-c2ccccc2I)n1 [H H CH2 CH2 CH2 F, 1-(2-iodophenyl)-N-methyl-N-(3-fluoropropyl)-3-isoquinolinecarboxamide] | 9.59

system: PK receptor sites; assay: not given; conditions: background statement; cited from earlier work

Row | Structure (SMILES) | binding to PK receptor sites
7 | CCC(C)N(C)C(=O)c1cc2ccccc2c(-c2ccccc2Cl)n1 (stereo not shown) [PK11195, 1-(2-chlorophenyl)-N-methyl-N-(alkyl)-3-isoquinoline carboxamide] | binds strongly
